From patent EP4389749A1, “SUBSTITUTED 3,7-DIHYDRO-1H-PURINE-2,6-DIONES AND USE THEREOF” (invIOs GmbH, priority 2022, dated 2024) come the findings set out here.

Some results are limits rather than exact numbers.

One assay deals with CD8+ T-cells. In words: Immunostimulation assay with anti-CD3/28 stimulated T-cells, CD69 expression by flow cytometry. Type of assay: cell-based, human. Particulars: T-cell; purified human CD4+ and CD8+ T-cells, 1 µg/ml anti-CD3, 1 µg/ml anti-CD28, 16 hours, surface FACS; read-out: EC50 CD8+. As for the experimental part: (§1) Selection of potent compounds based on structure activity relation (SAR) using human, anti-CD3/28 stimulated T-cells. Enhanced activation of stimulated T-cells is measured by CD69 expression by flowcytometry.
(§2) White blood cell enriched buffy coats were ordered from the Austrian red cross, diluted with PBS to a total volume of 480 ml, 30 ml transferred to 50ml falcons and 11 ml lymphoprep added. Cell suspensions were centrifuged for 20 min at 2200 rpm and the PBMC containing layer transferred, three times washed with PBS and counted.
(§3) 10^7 PBMCs were magnetically labeled with CD4 and CD8 microbeads according to manufacturer's instructions and separated using autoMACS device. For dose response experiments with purified CD4+CD8+ T-cells 80000 cells were seeded per 96-well flat bottom cell culture dish.
(§4) 10 mM compounds of the invention stocks were further diluted using DMSO and equal amounts transferred to T-cell containing 96-wells. Final concentrations tested were: 30 µM, 10 µM, 3 µM, 1 µM, 0.3 µM, 0.1 µM, 0.03 µM, 0.01 µM, 0.003 µM and 0.001 µM.
(§5) For the stimulation assays 80.000 purified CD4+ and CD8+ T-cells were seeded per 96-well and incubated with 1 µg/ml anti-CD3, 1 µg/ml anti-CD28 and compounds of the invention ranging from 0.001 µM to 30 µM. DMSO only wells served as control to determine minimal T-cell activation upon stimulation and CD3/28 coupled Dynabeads were used to determine the maximal activation of T-cells. Cells were cultured for 16 hours in a humidified incubator at 37 °C and 5 % CO2.
(§6) T-cells were stained for surface antigens (anti-CD4 and anti-CD8) and cell activation markers (anti-CD25 and anti-CD69). Additionally, a fixable viability dye was used to stain viable cells. Staining was performed for 15 minutes and cells analyzed using a Fortessa flow cytometer and FlowJo Software. EC50s were calculated using GraphPad Prism® and a variable slope model (agonist vs. response - variable slope).
Background: Flow cytometry measures light scatter and fluorescence of single cells or particles in a stream.

The next assay concerns CD4+ T-cells. The assay is described as above. Type of assay: cell-based, human. Particulars: T-cell; purified human CD4+ and CD8+ T-cells, 1 µg/ml anti-CD3, 1 µg/ml anti-CD28, 16 hours, surface FACS; read-out: EC50 CD4+. On the procedure:
as §1, §2, §3, §4, §5, §6

Regarding `CC(O)Cn1c(=O)[nH]c(=O)c2c1nc(-c1ccc(Oc3ccc(OC(F)(F)F)cc3)c(C(F)(F)F)c1)n2C` (stereo not shown) [Compound 155, 3-(2-hydroxypropyl)-7-methyl-8-(4-(4-(trifluoromethoxy)phenoxy)-3-(trifluoromethyl)phenyl)-3,7-dihydro-1H-purine-2,6-dione], the EC50 with CD8+ T-cells and in the assay with CD4+ T-cells was 1000 to 5000 nM in each case.

Consider `Cn1c(-c2ccc(OCc3ccccc3)c(OC(F)(F)F)c2)nc2c1c(=O)[nH]c(=O)n2CC(CO)C(F)F` (stereo not shown) [Compound 198, 8-(4-(benzyloxy)-3-(trifluoromethoxy)phenyl)-3-(3,3-difluoro-2-(hydroxymethyl)propyl)-7-methyl-3,7-dihydro-1H-purine-2,6-dione], for which the EC50 (usually the concentration needed to bring the measured effect to its halfway point) is 100 to 500 nM with CD8+ T-cells and less than 100 nM in the assay on CD4+ T-cells.

In the case of `CC(CO)Cn1c(=O)[nH]c(=O)c2c1nc(-c1ccc(OCc3ccccc3)c(OC(F)(F)F)c1)n2C` (stereo not shown) [Compound 118, 8-(4-(benzyloxy)-3-(trifluoromethoxy)phenyl)-3-(3-hydroxy-2-methylpropyl)-7-methyl-3,7-dihydro-1H-purine-2,6-dione], the concentration giving a half-maximal response (EC50) in the assay on CD8+ T-cells is 100 to 500 nM; in the assay on CD4+ T-cells, less than 100 nM.

As to `COc1cc(COc2ccc(-c3nc4c(c(=O)[nH]c(=O)n4CC(C)O)n3C)cc2OC)ccc1F` (stereo not shown) [Compound 127, 8-(4-((4-fluoro-3-methoxybenzyl)oxy)-3-methoxyphenyl)-3-(2-hydroxypropyl)-7-methyl-3,7-dihydro-1H-purine-2,6-dione], the EC50 in the assay with CD8+ T-cells and in the assay on CD4+ T-cells was 500 to 1000 nM in each case.

Turning to `CC(O)Cn1c(=O)[nH]c(=O)c2c1nc(-c1ccc(Oc3ccc(OC(F)F)cc3)c(Cl)c1)n2C` (stereo not shown) [Compound 178, 8-(3-chloro-4-(4-(difluoromethoxy)phenoxy)phenyl)-3-(2-hydroxypropyl)-7-methyl-3,7-dihydro-1H-purine-2,6-dione], the 50% effective concentration (EC50) in the assay with CD8+ T-cells and in the assay with CD4+ T-cells was 500 to 1000 nM throughout.

For `Cn1c(-c2ccc(Oc3ccc(Cl)cc3)c(Cl)c2)nc2c1c(=O)[nH]c(=O)n2CC(O)C(F)(F)F` (stereo not shown) [Compound 153, 8-(3-chloro-4-(4-chlorophenoxy)phenyl)-7-methyl-3-(3,3,3-trifluoro-2-hydroxypropyl)-3,7-dihydro-1H-purine-2,6-dione], the EC50 with CD8+ T-cells and with CD4+ T-cells was 100 to 500 nM in each case.

With `CC(O)Cn1c(=O)[nH]c(=O)c2c1nc(-c1ccc(Oc3ccc(S(C)(=O)=O)cc3)cc1)n2C` (stereo not shown) [Compound 176, 3-(2-hydroxypropyl)-7-methyl-8-(4-(4-(methylsulfonyl)phenoxy)phenyl)-3,7-dihydro-1H-purine-2,6-dione], the EC50 in the assay with CD8+ T-cells fell in the range of 500 to 1000 nM; in the assay with CD4+ T-cells, 1000 to 5000 nM.

`Cn1c(-c2ccc(Oc3ccc(OC(F)F)cc3)c(Cl)c2)nc2c1c(=O)[nH]c(=O)n2CC(O)C(F)(F)F` (stereo not shown) [Compound 162, 8-(3-chloro-4-(4-(difluoromethoxy)phenoxy)phenyl)-7-methyl-3-(3,3,3-trifluoro-2-hydroxypropyl)-3,7-dihydro-1H-purine-2,6-dione]: the EC50 was greater than 5000 nM with CD8+ T-cells and 500 to 1000 nM with CD4+ T-cells.

Regarding `Cn1c(-c2ccc(Oc3ccc(Cl)cc3)cc2)nc2c1c(=O)[nH]c(=O)n2CC(O)C(F)(F)F` (stereo not shown) [Compound 164, 8-(4-(4-chlorophenoxy)phenyl)-7-methyl-3-(3,3,3-trifluoro-2-hydroxypropyl)-3,7-dihydro-1H-purine-2,6-dione], the EC50 in the assay with CD8+ T-cells and in the assay with CD4+ T-cells was 100 to 500 nM throughout.

As to `CC(O)Cn1c(=O)[nH]c(=O)c2c1nc(-c1ccc(Oc3ccc(Cl)cc3)cc1)n2C` (stereo not shown) [Compound 138, 8-(4-(4-chlorophenoxy)phenyl)-3-(2-hydroxypropyl)-7-methyl-3,7-dihydro-1H-purine-2,6-dione], the EC50 in the assay on CD8+ T-cells and with CD4+ T-cells was 1000 to 5000 nM throughout.

With `CCC(O)Cn1c(=O)[nH]c(=O)c2c1nc(-c1ccc(OCc3ccccc3)c(OC)c1)n2C` (stereo not shown) [Compound 59, 8-(4-(benzyloxy)-3-methoxyphenyl)-3-(2-hydroxybutyl)-7-methyl-3,7-dihydro-1H-purine-2,6-dione], the EC50 in the assay with CD8+ T-cells and in the assay on CD4+ T-cells was 1000 to 5000 nM each time.
